From US5525626A (priority 1989, dated 1996)

Columns and labels:
Experiment in all cases: 3H-thymidine assay
Type in all cases: cell-based
[1] = system: HCV cells
[2] = system: Tp 483 MG glioblastoma cells
[3] = system: CAKI-2 cells; conditions: Homo sapiens, CAKI-2
Procedure: (§1) The cell lines were cultivated as indicated in Example 1.
(§2) The antiproliferative effect of the 1,2-benzopyrone derivatives according to the invention on the tumor cell lines in each case was shown with the help of the ^3 H-thymidine insertion and with reference to growth curves.
In a 24-well-plate, in each case 10^4 cells of the line to be investigated were inoculated per well. Approximately 48 hours later the cells were half-confluent; the medium was then changed and replaced by a medium containing the active substance in question (cf Table 3). […] Subsequently the cultures were washed twice with ice-cold PBS and the high-molecular-weight ^3 H-radioactivity was precipitated with 5% trichloroacetic acid for one hour at 4° C. After the washing of the cells in PBS the ^3 H-radioactivity was solubilized with 0.3M NaOH and measured in the counter. The growth-inhibition was determined by comparing the thymidine insertion of the cells treated with active substance with untreated cells.
(§3) The active substance concentration in each case was so chosen that ^3 H-thymidine insertion was 50% inhibited. The active substance concentrations used under this aspect for the active substances and cell lines in each case are given in table 4 below in μM/ml, […]

[4] = system: K-562 leukemic cells; conditions: Homo sapiens, K562
Procedure: as §1, §2
In a 24-well-plate, in each case 10^4 cells of the line to be investigated were inoculated per well. Approximately 48 hours later the cells were half-confluent; the medium was then changed and replaced by a medium containing the active substance in question (cf Table 3). After a further 48 hours 0.25 μCi ^3 H-thymidine (Ammersham) was added to each well and the cells were incubated for a further 24 hours. Subsequently the cultures were washed twice with ice-cold PBS and the high-molecular-weight ^3 H-radioactivity was precipitated with 5% trichloroacetic acid for one hour at 4° C. After the washing of the cells in PBS the ^3 H-radioactivity was solubilized with 0.3M NaOH and measured in the counter. The growth-inhibition was determined by comparing the thymidine insertion of the cells treated with active substance with untreated cells.
as §3

[5] = system: Daudi leukemic cells; conditions: Homo sapiens
[6] = system: G-361 melanoma cells; conditions: Homo sapiens, G-361
[7] = system: Tp 410 N neuroblastoma cells; conditions: Homo sapiens, Neuroblastoma cell
[8] = system: Z-R-75-1 breast cancer cells; conditions: Homo sapiens, ZR-75-1
[9] = system: GV-1 prostate carcinoma cells
[10] = 1 μM/ml, read-out: 3H-thymidine tracer (%) of control
[11] = 2 μM/ml, read-out: 3H-thymidine tracer (%) of control
[12] = 4 μM/ml, read-out: 3H-thymidine tracer (%) of control
[13] = 8 μM/ml, read-out: 3H-thymidine tracer (%) of control
[14] = 16 μM/ml, read-out: 3H-thymidine tracer (%) of control
[15] = 25 μM/ml, read-out: 3H-thymidine tracer (%) of control
[16] = 50 μM/ml, read-out: 3H-thymidine tracer (%) of control
[17] = 250 μM/ml, read-out: 3H-thymidine tracer (%) of control
[18] = 500 μM/ml, read-out: 3H-thymidine tracer (%) of control
[19] = Table 4, *: maximum usable dosage, no 50% inhibition, read-out: active substance concentration at which 3H-thymidine insertion was 50% inhibited
[20] = 1 μM/ml, read-out: 3H-thymidine insertion (%) of control
[21] = 2 μM/ml, read-out: 3H-thymidine insertion (%) of control
[22] = 4 μM/ml, read-out: 3H-thymidine insertion (%) of control
[23] = 8 μM/ml, read-out: 3H-thymidine insertion (%) of control
[24] = 16 μM/ml, read-out: 3H-thymidine insertion (%) of control
[25] = 25 μM/ml, read-out: 3H-thymidine insertion (%) of control
[26] = 50 μM/ml, read-out: 3H-thymidine insertion (%) of control
[27] = 100 μM/ml, read-out: 3H-thymidine insertion (%) of control
[28] = 250 μM/ml, read-out: 3H-thymidine insertion (%) of control
[29] = 500 μM/ml, read-out: 3H-thymidine insertion (%) of control
[30] = Table 4, read-out: active substance concentration at which 3H-thymidine insertion was 50% inhibited
[31] = 100 μM/ml, read-out: 3H-thymidine tracer (%) of control

COc1cc2ccc(=O)oc2cc1O [Scopoletin, 6-methoxy-7-hydroxy-1,2-benzopyrone]
activity at 1 µM [1, 10]: 97%
activity at 2 µM [1, 11]: 90%
activity at 4 µM [1, 12]: 86%
activity at 8 µM [1, 13]: 81%
activity at 16 µM [1, 14]: 77%
activity at 25 µM [1, 15]: 69%
activity at 50 µM [1, 16]: 65%
activity at 250 µM [1, 17]: 60%
activity at 500 µM [1, 18]: 57%
IC50 [1, 19]: > 500 µM
activity at 1 µM [2, 20]: 100%
activity at 2 µM [2, 21]: 95%
activity at 4 µM [2, 22]: 89%
activity at 8 µM [2, 23]: 86%
activity at 16 µM [2, 24]: 78%
activity at 25 µM [2, 25]: 72%
activity at 50 µM [2, 26]: 67%
activity at 100 µM [2, 27]: 63%
activity at 250 µM [2, 28]: 54%
activity at 500 µM [2, 29]: 50%
IC50 [2, 30]: 500 µM
activity at 1 µM [3, 10]: 99%
activity at 2 µM [3, 11]: 96%
activity at 4 µM [3, 12]: 84%
activity at 8 µM [3, 13]: 80%
activity at 16 µM [3, 14]: 76%
activity at 25 µM [3, 15]: 71%
activity at 50 µM [3, 16]: 66%
activity at 100 µM [3, 31]: 61%
activity at 150 µM ([3]; 150 μM/ml, read-out: 3H-thymidine tracer (%) of control): 59%
activity at 500 µM [3, 18]: 53%
IC50 [3, 19]: > 500 µM
activity at 1 µM [4, 10]: 100%
activity at 2 µM [4, 11]: 97%
activity at 4 µM [4, 12]: 90%
activity at 8 µM [4, 13]: 85%
activity at 16 µM [4, 14]: 82%
activity at 25 µM [4, 15]: 71%
activity at 50 µM [4, 16]: 66%
activity at 100 µM [4, 31]: 52%
activity at 250 µM [4, 17]: 47%
activity at 500 µM [4, 18]: 44%
IC50 [4, 30]: 175 µM
activity at 1 µM [5, 10]: 96%
activity at 2 µM [5, 11]: 94%
activity at 4 µM [5, 12]: 80%
activity at 8 µM [5, 13]: 79%
activity at 16 µM [5, 14]: 71%
activity at 25 µM [5, 15]: 64%
activity at 50 µM [5, 16]: 58%
activity at 100 µM [5, 31]: 53%
activity at 250 µM [5, 17]: 49%
activity at 500 µM [5, 18]: 41%
IC50 [5, 30]: 250 µM
activity at 1 µM [6, 10]: 100%
activity at 2 µM [6, 11]: 98%
activity at 4 µM [6, 12]: 96%
activity at 8 µM [6, 13]: 88%
activity at 25 µM [6, 15]: 85%
activity at 50 µM [6, 16]: 85%
activity at 100 µM [6, 31]: 76%
activity at 250 µM [6, 17]: 71%
activity at 500 µM [6, 18]: 67%
IC50 [6, 19]: > 500 µM
activity at 1 µM [7, 20]: 100%
activity at 2 µM [7, 21]: 98%
activity at 4 µM [7, 22]: 95%
activity at 8 µM [7, 23]: 87%
activity at 16 µM [7, 24]: 82%
activity at 25 µM [7, 25]: 74%
activity at 50 µM [7, 26]: 71%
activity at 100 µM [7, 27]: 65%
activity at 250 µM [7, 28]: 62%
activity at 500 µM [7, 29]: 54%
IC50 [7, 30]: 500 µM
activity at 1 µM [8, 10]: 98%
activity at 2 µM [8, 11]: 96%
activity at 4 µM [8, 12]: 91%
activity at 8 µM [8, 13]: 83%
activity at 16 µM [8, 14]: 79%
activity at 25 µM [8, 15]: 72%
activity at 50 µM [8, 16]: 64%
activity at 100 µM [8, 31]: 57%
activity at 250 µM [8, 17]: 55%
activity at 500 µM [8, 18]: 50%
IC50 [8, 19]: > 500 µM
activity at 1 µM [9, 10]: 100%
activity at 2 µM [9, 11]: 98%
activity at 4 µM [9, 12]: 91%
activity at 8 µM [9, 13]: 88%
activity at 16 µM [9, 14]: 82%
activity at 25 µM [9, 15]: 78%
activity at 50 µM [9, 16]: 71%
activity at 100 µM [9, 31]: 63%
activity at 250 µM [9, 17]: 61%
activity at 500 µM [9, 18]: 51%
IC50 [9, 30]: 500 µM
